Measured values taken from PMC6687188, “Novel lactate dehydrogenase inhibitors with in vivo efficacy against Cryptosporidium parvum” (PLoS Pathogens, 2019).
Like-named read-outs stand apart in the source and are kept apart here.

Key:
[1] = target: T1, recombinant CpLDH protein (Cryptosporidium parvum, UniProt Q9GT92, F198L/K295E/R251K); settings: cited from earlier work
[2] = target: T1, recombinant CpLDH protein; settings: for Km: pyruvate/NADH: reduction reaction pH 7.5, lactate/NAD+: oxidation reaction pH 9.2, 25°C; for Kcat / Vmax: pyruvate/NADH: reduction reaction, lactate/NAD+: oxidation reaction
Experimental: The coding sequence of CpLDH was cloned from cDNA prepared from the AUCP-1 isolate of C. parvum, and the His-tagged CpLDH recombinant protein expressed in Escherichia coli, and purified in native form essentially as previously described. Briefly, cDNA was prepared from total RNA extracted from the AUCP-1 isolate of C. parvum, and the coding sequence of CpLDH (Genebank accession number AF274310.1) was PCR-amplified from the cDNA using the primer pair 5’-[…]-3’ (Forward, with the XhoI restriction site italicized and start codon in bold) and 5’-[…]-3’ (Reverse, with the BamHI site italicized and stop codon in bold). The PCR amplicon was cloned at the XhoI/BamHI site of the pET15b expression vector in-frame with the hexahistidine (His-tag) at the N-terminal and sequenced to confirm identity. The recombinant expression vector was transformed into protein expression E. coli BL21-CodonPlus-DE3-RIL (Stratagene). Transformed E. coli was cultured at 37°C in Luria broth medium (supplemented with 100 μg/ml ampicillin and 34 μg/ml chloramphenicol) to an A600 of 0.8 followed by addition of 1 mM isopropyl-β-D-thiogalactopyranoside to induce protein expression. The expression E. coli was harvested and lysed under native conditions by sonicating in lysis buffer (50 mM NaH2PO4, 300 mM NaCl, 10 mM Imidazole, pH 8.0) containing a 1x EDTA-free protease inhibitor cocktail, 600 units benzonase and 30 kU lysozyme (EMD Millipore). The lysate was clarified by centrifugation and the His-tagged recombinant protein purified under native conditions by nickel-affinity chromatography according to the manufacturer's instructions (Novagen). The wash buffer used contained 50 mM NaH2PO4, 300 mM NaCl and 20 mM Imidazole, pH 8.0, while the elution buffer was composed of 50 mM NaH2PO4, 300 mM NaCl, 250 mM Imidazole, pH 8.0. The eluate was dialyzed using a buffer containing 5 mM Hepes–KOH (pH 7.8) and 0.5 mM DTT. The purity of the recombinant protein was determined by SDS/PAGE, and the concentration measured using a Qubit 3.0 fluorometer (Life technologies). […] On the other hand, the catalytic activity of CpLDH recombinant protein for the oxidation of lactate to pyruvate was determined by measuring the change in optical density of a 100 μl reaction mixture containing 100 mM lactate, 1 mM NAD^+, 100 mM Tris, pH 9.2, with varying concentrations of CpLDH recombinant protein at 25°C. […] In all assays, reaction mixtures without recombinant CpLDH protein were included as negative controls. All assays were performed in triplicate and repeated at least thrice. The change in optical density was measured every 15 seconds for a total of 2 minutes using a Spectra Max 384 Plus plate reader (Molecular Devices) at a wave length of 340 nm.

[3] = target: T1, recombinant CpLDH protein; settings: value in parentheses; ref Zhang et al., 2015 [11]; cited from earlier work
[4] = Compound cytotoxicity assay (WST-1 cell proliferation reagent); settings: human
Experimental: A colorimetric assay using the cell proliferation reagent WST-1 (Roche, USA) for the quantification of cell viability was performed. […] When the cells were confluent, the old medium was replaced with fresh medium with or without varying concentrations of chemical compound. After 24 h of culture, 10 μl of the cell proliferation reagent WST-1, (for quantification of cell viability) was added to each well, mixed and the plates incubated for 1 h at 37 C with 5% CO2 in the dark. […] Three independent assays were performed and the dose–response curves of the means of triplicate assays were generated using GraphPad PRISM software to derive the half maximal inhibitory concentration (IC50) of compounds in HCT-8 cells.

Cryptosporidium parvum [5] = assay: In vitro anti-Cryptosporidium assay in HCT-8 cells (immunofluorescence); type: cell-based; settings: Cryptosporidium parvum, HCT-8, positive control, time of addition not specified, read-out: IC50, inhibition of C. parvum growth
Experimental: HCT-8 cells were cultured in supplemented RPMI-1640 medium in 96-well plates. When the cells were confluent, old medium was replaced with fresh medium. To one set of wells, varying concentrations of recombinant CpLDH inhibitors (reconstituted in DMSO and diluted in RPMI medium) were added, while another set was left without inhibitors. Paromomycin was used as a positive control drug reconstituted in distilled sterile water. Then, 4 x 10^4 freshly excysted sporozoites were added to each well and incubated at 37°C with 5% CO2. After 2 h incubation, varying concentrations of CpLDH inhibitors were added to the set of infected cells that were not treated initially. Control infected cells without inhibitors, but with added DMSO volumes equivalent to those used in the wells with inhibitors, were included. The cells were maintained in culture for a total of either 48 h or 72 h and processed for immunofluorescence assay as previously described. Briefly, medium was decanted and the cells fixed with methanol-acetic acid (9:1) for 2 minute at room temperature. The cells were rehydrated and permeabilized by two successive washes with buffer (0.1% Triton X-100, 0.35 M NaCl, 0.13 M Tris-base, pH 7.6) and blocked with 5% normal goat serum, followed by staining with antibody to C. parvum (SporoGlo; Waterborn, Inc.) overnight at 4°C. The stained cells were washed twice with PBS, followed by water, and then imaged with an inverted fluorescence microscope. Fluorescence quantification was done using ImageJ version 1.37v software (NIH).

HCT-8 cells = test system: HCT-8 cells; parameters: method as in PMID 10882689, PMID 18591280; settings: concentrations above 1000 μM; cited from earlier work
Cryptosporidium parvum [6] = assay: In vivo anti-Cryptosporidium efficacy: real-time PCR of C. parvum DNA in feces of infected Gamma interferon knockout mice; settings: day 7 post-infection; NSC158011 400 mg/kg, paromomycin 100 mg/kg
Experimental: Gamma interferon knockout mice (B6.129S7-Ifng), 8 weeks of age, were purchased from Charles River, USA. The care and use of the mice was done following the guidelines of protocol number 17024 approved by the University of Illinois at Urbana-Champaign, USA. The animals were allowed to acclimatize for 1 week before experiments commenced. Stock solutions of recombinant CpLDH inhibitors reconstituted in DMSO were diluted in sterile distilled water to reduce the final amount of DMSO in the solution to less than 1% (v/v) before administering them to mice. […] An equivalent volume of PBS containing a cocktail of penicillin (100 units/ml), streptomycin (100 μg/ml), chloramphenicol (34 μg/ml) and amphotericin (0.25 μg/ml) was added to the fecal samples and stored at 4°C until use for quantification of C. parvum genomic DNA load. […]
Genomic DNA was extracted from individual fecal samples collected from mice at different days as described above. […] Quantification of the amount of C. parvum 18s rRNA gene (GenBank accession number AF164102) was performed essentially as described previously. […] The PCR product was fractionated on agarose gel, extracted using the QIAquick Gel extraction kit (Qiagen, USA), and the concentration measured by Nanodrop Spectrophotometer (Fisher, USA). Ten-fold serial dilutions of the extracted DNA fragment were made and used as quantification standards for real-time PCR. […]

Cryptosporidium parvum [7] = test system: Cryptosporidium parvum; parameters: method as in PMID 18591280; settings: read-out: IC50 for inhibition of C. parvum growth in HCT-8 cells; cited from earlier work
Cryptosporidium parvum [8] = assay: Histopathology of distal small intestine of infected mice (denuded villi); type: in vivo; settings: 9 days post-infection
Experimental: Gamma interferon knockout mice (B6.129S7-Ifng), 8 weeks of age, were purchased from Charles River, USA. The care and use of the mice was done following the guidelines of protocol number 17024 approved by the University of Illinois at Urbana-Champaign, USA. The animals were allowed to acclimatize for 1 week before experiments commenced. Stock solutions of recombinant CpLDH inhibitors reconstituted in DMSO were diluted in sterile distilled water to reduce the final amount of DMSO in the solution to less than 1% (v/v) before administering them to mice. Prior to testing the anti-Cryptosporidium effect of the inhibitors in mice, the tolerability of each inhibitor was tested by oral gavage using varying dosages (100–2000 mg/kg body weight) of each inhibitor in groups of mice (three mice for each dose) daily for 7 days. Mice were observed daily for signs of toxicity including changes from normal physical activity, respiration, body temperature, feeding, posture, fur condition or occurrence of death. […] Mice were allocated to groups as follows: “Infected plus inhibitor treatment”; “Infected minus inhibitor treatment”; “Uninfected minus inhibitor treatment” and “Infected plus paromomycin treatment”. Each group contained at least three mice. Each mouse in the infection groups received 5,000 C. parvum oocysts (resuspended in 50 μl of PBS) by oral gavage. Mice were housed individually in cages lined with sterile gauze as bedding. One day post-infection (PI), daily oral gavage administration of recombinant CpLDH inhibitor or paromomycin commenced and continued for a total of 7 days. Untreated mice received an equivalent volume of sterile distilled water (containing DMSO equivalent to the amount administered in the inhibitor-treated group) by oral gavage. […] An equivalent volume of PBS containing a cocktail of penicillin (100 units/ml), streptomycin (100 μg/ml), chloramphenicol (34 μg/ml) and amphotericin (0.25 μg/ml) was added to the fecal samples and stored at 4°C until use for quantification of C. parvum genomic DNA load. […]

Row | SMILES | Km [2] | Kcat [2] | Vmax [2] | Kcat [3] | Km [3] | Vmax [3] | other results
1 | CCCc1c(O)c(O)c(C(=O)O)c2cc(Cc3ccccc3)c(C)cc12 [FX11] | – | – | – | – | – | – | enzymatic activity of CpLDH (in words) [1]: able to inhibit
2 | CC(O)C(=O)O (centres unmarked) [Lactate, lactate] | 39600 µM | 0.07 s⁻¹ | 0.04 nmol⁻¹ µg⁻¹ min⁻¹ | 0.66 s⁻¹ | 10800 µM | 0.53 nmol⁻¹ µg⁻¹ min⁻¹ | –
3 | NC(=O)C1=CN([C@@H]2O[C@H](COP(=O)(O)OP(=O)(O)OC[C@H]3O[C@@H](n4cnc5c(N)ncnc54)[C@H](O)[C@@H]3O)[C@@H](O)[C@H]2O)C=CC1 [NADH] | 734 µM | – | 6.29 nmol⁻¹ µg⁻¹ min⁻¹ | – | – | – | –
4 | NC(=O)c1ccc[n+]([C@@H]2O[C@H](COP(=O)([O-])OP(=O)(O)OC[C@H]3O[C@@H](n4cnc5c(N)ncnc54)[C@H](O)[C@@H]3O)[C@@H](O)[C@H]2O)c1 [NAD^+] | 56 µM | 0.11 s⁻¹ | 0.07 nmol⁻¹ µg⁻¹ min⁻¹ | 0.70 s⁻¹ | 62 µM | 0.56 nmol⁻¹ µg⁻¹ min⁻¹ | –
5 | CN(C)C(=S)SSC(=S)N(C)C [NSC1771] | – | – | – | – | – | – | IC50 at 24 h [4]: 110 µM
6 | Cc1cc2c(C(C)C)c(O)c(O)c(C=O)c2c(O)c1-c1c(C)cc2c(C(C)C)c(O)c(O)c(C=O)c2c1O [NSC56817] | – | – | – | – | – | – | IC50 at 24 h [4]: 64.2 µM
7 | CC(=O)C(=O)O [Pyruvate, pyruvate] | 731 µM | 8.42 s⁻¹ | 5.04 nmol⁻¹ µg⁻¹ min⁻¹ | 16.10 s⁻¹ | 427 µM | 12.89 nmol⁻¹ µg⁻¹ min⁻¹ | Km for pyruvate lower than that for lactate [2]: at least 54 fold; Vmax for pyruvate higher than that for lactate [2]: 123 fold
8 | Cc1cc2c(C(C)C)c(O)c(O)c(C=O)c2c(O)c1-c1c(C)cc2c(C(C)C)c(O)c(O)c(C=O)c2c1O [gossypol] | – | – | – | – | – | – | enzymatic activity of CpLDH (in words) [1]: able to inhibit
9 | NC[C@@H]1O[C@H](O[C@H]2[C@@H](O)[C@H](O[C@@H]3[C@@H](O)[C@H](N)C[C@H](N)[C@H]3O[C@H]3O[C@H](CO)[C@@H](O)[C@H](O)[C@H]3N)O[C@@H]2CO)[C@H](N)[C@@H](O)[C@@H]1O [paromomycin, reference compound] | – | – | – | – | – | – | IC50 (Cryptosporidium parvum [5]; 48 h post-infection): 450 µM; IC50 (Cryptosporidium parvum [5]; 72 h post-infection): 400 µM; cytotoxicity in HCT-8 cells (HCT-8 cells): negligible; reduction of shedding of C. parvum in mice feces compared to untreated infected mice (Cryptosporidium parvum [6]): about 3000 fold; IC50 (Cryptosporidium parvum [7]): 711 µM; reduction of percentage of denuded intestinal villi compared to infected untreated mice (Cryptosporidium parvum [8]): ≥ 7 fold
